# Test results published in patent publication US6602873B2, “Angiogenesis inhibiting thiadiazolyl pyridazine derivatives” (Janssen Pharamaceutica, N.V., priority 1997, dated 2003).
# Where a name gives a salt, the structure may show the parent alone.
# Tested on: microvessel formation in rat aortic rings
# Experiment: rat aortic ring model of angiogenesis (inhibition of microvessel formation)
# Assay type: cell-based
# Details: 192 h, microvessel area after eight days in culture vs vehicle-treated control rings
# Procedure: Angiogenesis inhibitory activity was measured in vitro using the rat aortic ring model of angiogenesis as described by Nicosia, R. F. and Ottinetti in “Laboratory Investigation”, vol. 63, p. 115, 1990. The ability of compounds to inhibit microvessel formation was compared to vehicle-treated control rings. Quantitation (microvessel area) following eight days in culture was performed using an image analysis system, consisting of a light microscope, a CCD camera and an automated, custom-designed image analysis program as described by Nissanov, J., Tuman, R. W., Gruver, L. M., and Fortunato, J. M. in “Laboratory Investigation”, vol 73 (#5), p. 734, 1995. Compounds were tested at several concentrations for determination of inhibitory potency (IC50's).
row,SMILES,IC50 [nM]
1,"Cc1nsc(-c2ccc(N(C)CCCCOc3ccc(C(F)(F)F)cc3)nn2)n1 [Compound 55, N-methyl-6-(3-methyl-1,2,4-thiadiazol-5-yl)-N-[4-[4-(tri-fluoromethyl)phenoxy]butyl]-3-pyridazinamine monohydrochloride]",3.62
2,"Cc1nsc(-c2ccc(N(C)CCCCOc3cccc(C(F)(F)F)c3)nn2)n1 [Compound 52, N-methyl-6-(3-methyl-1,2,4-thiadiazol-5-yl)-N-[4-[3-(trifluoromethyl)phenoxy]butyl]-3-pyridazinamine]",5.56
3,"Cc1nsc(-c2ccc(SCCCCOc3cccc(C(F)(F)F)c3)nn2)n1 [Compound 94, 3-(3-methyl-1,2,4-thiadiazol-5-yl)-6-[[4-[3-(trifluoromethyl)phenoxy]butyl]thio]pyridazine]",4.71

# Same assay, conditions: microvessel area after eight days in culture vs vehicle-treated control rings
row,SMILES,IC50 [nM]
1,Cc1nsc(-c2ccc(N(C)CCCNc3cccc(C(F)(F)F)c3)nn2)n1 [Compound 104],20.3
2,Cc1nsc(-c2ccc(N(C)CCCCOc3ccc(F)cc3)nn2)n1 [Compound 43],2.78
3,Cc1nsc(-c2ccc(N(C)CCCCCc3cccc(C(F)(F)F)c3)nn2)n1 [Compound 78],0.28
4,Cc1nsc(-c2ccc(N(C)CCCCSc3cccc(C(F)(F)F)c3)nn2)n1 [Compound 74],1
5,Cc1nsc(-c2ccc(NCCCCCCNc3ccccc3)nn2)n1 [Compound 5],16.4
6,CN(C)c1nsc(-c2ccc(NCCCCOc3cccc(C(F)(F)F)c3)nn2)n1 [Compound 67],32.4
7,Cc1nsc(-c2ccc(N(C)CCCCOc3ccccc3Cl)nn2)n1 [Compound 37],1.32
8,Cc1nsc(-c2ccc(NCCCCOc3cccc(F)c3)nn2)n1 [Compound 20],8.15
9,Cc1nsc(-c2ccc(N(C)CCN(C)c3ccccc3)nn2)n1 [Compound 10],15.6
10,FC(F)(F)c1cccc(OCCCCNc2ccc(-c3ncns3)nn2)c1 [Compound 11],90.8
11,Cc1nsc(-c2ccc(NCCCCOc3ccc(F)cc3)nn2)n1 [Compound 21],48.4
12,Cc1nsc(-c2ccc(NCCCCNc3cccc(C(F)(F)F)c3)nn2)n1 [Compound 108],37.9
13,Cc1nsc(-c2ccc(N(C)CCOc3cccc(C(F)(F)F)c3)nn2)n1 [Compound 50],0.83
14,Cc1ccc(C(C)C)c(OCCCCN(C)c2ccc(-c3nc(C)ns3)nn2)c1 [Compound 62],5.53
15,Cc1nsc(-c2ccc(N(C)CCCCN(C)c3cccc(C(F)(F)F)c3)nn2)n1 [Compound 111],1.87
16,Cc1nsc(-c2ccc(N(C)CCCCOc3cc(C(F)(F)F)cc(C(F)(F)F)c3)nn2)n1 [Compound 53],7.33
17,Cc1nsc(-c2ccc(NCCCCOc3ccc(Br)cc3)nn2)n1 [Compound 14],31.2
18,Cc1nsc(-c2ccc(N(C)CCCCOc3ccccc3C(F)(F)F)nn2)n1 [Compound 49],0.312
19,CN(C)c1nsc(-c2ccc(N(C)CCOc3cccc(C(F)(F)F)c3)nn2)n1 [Compound 100],7.01
20,Cc1nsc(-c2ccc(NCCCCCNc3ccccc3)nn2)n1 [Compound 4],21.2
21,Cc1nsc(-c2ccc(NCCN(C)c3cccc(C(F)(F)F)c3)nn2)n1 [Compound 105],1.49
22,COc1cccc(OCCCCNc2ccc(-c3nc(C)ns3)nn2)c1 [Compound 30],6.31

row,SMILES,IC50 [nM]
1,COc1ccc(OCCCCN(C)c2ccc(-c3nc(C)ns3)nn2)c(Cl)c1 [Compound 40],11.5
2,Cc1nsc(-c2ccc(N(C)CCCCOc3cccc(C(F)(F)F)c3F)nn2)n1 [Compound 46],1.46
3,Cc1nsc(-c2ccc(NCCCCCCNc3cccc(C(F)(F)F)c3)nn2)n1 [Compound 8],8.53
4,CN(CCCCOc1cccc(C(F)(F)F)c1)c1ccc(-c2nc(CO)ns2)nn1 [Compound 102],2.08
5,Cc1nsc(-c2ccc(N(C)CCCCOc3ccc([N+](=O)[O-])c(C(F)(F)F)c3)nn2)n1 [Compound 54],13.7
6,Cc1nsc(-c2ccc(N(C)CCCCOc3cccc(F)c3)nn2)n1 [Compound 42],42.2
7,FC(F)(F)c1cccc(OCCNc2ccc(-c3ncns3)nn2)c1 [Compound 98],3.07
8,Cc1nsc(-c2ccc(N(C)CCCCOc3ccccc3F)nn2)n1 [Compound 41],2.56
9,Cc1nsc(-c2ccc(NCCCCCc3cccc(C(F)(F)F)c3)nn2)n1 [Compound 77],5.81
10,Cc1nsc(-c2ccc(NCCCNc3cccc(C(F)(F)F)c3)nn2)n1 [Compound 7],45.4
11,CCN(CCCCOc1cccc(C(F)(F)F)c1)c1ccc(-c2nc(C)ns2)nn1 [Compound 63],9.2
12,Cc1nsc(-c2ccc(N(C)CCCCOc3cccc([N+](=O)[O-])c3)nn2)n1 [Compound 57],51.1
13,Cc1nsc(-c2ccc(N(C)CCCCOc3ccc(F)c(F)c3)nn2)n1 [Compound 45],2
14,Cc1nsc(-c2ccc(N(C)CCCCOc3ccc(F)cc3F)nn2)n1 [Compound 44],15.2
15,Cc1ccc(C(C)C)c(OCCCCNc2ccc(-c3nc(C)ns3)nn2)c1 [Compound 29],24.8
16,Cc1nsc(-c2ccc(NCCCCOc3cccc(C(F)(F)F)c3)nn2)n1 [Compound 26],3.97
17,Cc1nsc(-c2ccc(NCCCCCOc3cccc(C(F)(F)F)c3)nn2)n1 [Compound 27],0.622
18,Cc1nsc(-c2ccc(NCCCCCCOc3cccc(C(F)(F)F)c3)nn2)n1 [Compound 28],1.76
19,Cc1cccc(OCCCCN(C)c2ccc(-c3nc(C)ns3)nn2)c1 [Compound 61],35.1
20,Cc1nsc(-c2ccc(N(C)CCCCOc3ccc(Cl)cc3)nn2)n1 [Compound 38],37.2
21,Cc1nsc(-c2ccc(NCCCCOc3ccc(Cl)cc3)nn2)n1 [Compound 16],15.8
22,CN(C)c1nsc(-c2ccc(NCCCCCCNc3cccc(C(F)(F)F)c3)nn2)n1 [Compound 97],1.6

row,SMILES,IC50 [nM]
1,Cc1nsc(-c2ccc(N(C)CCNc3ccccc3)nn2)n1 [Compound 9],17.9
2,Cc1nsc(-c2ccc(N(C)CCCCC(=O)c3cccc(C(F)(F)F)c3)nn2)n1 [Compound 70],12.2
3,Cc1nsc(-c2ccc(NCCCCNc3ccccc3)nn2)n1 [Compound 3],45.7
4,Cc1nsc(-c2ccc(NCCCCOc3ccc(Cl)c(Cl)c3)nn2)n1 [Compound 17],12.8
5,Cc1nsc(-c2ccc(NCCCCSc3cccc(C(F)(F)F)c3)nn2)n1 [Compound 73],2.86
6,Cc1nsc(-c2ccc(NCCCCOc3ccccc3Cl)nn2)n1 [Compound 15],1.34
7,Cc1nsc(-c2ccc(N(C)CCCCOc3ccc(Br)cc3)nn2)n1 [Compound 36],5.3
8,Cc1nsc(-c2ccc(N(C)CCCCOc3cc(C(F)(F)F)ccc3F)nn2)n1 [Compound 47],12.5
9,Cc1nsc(-c2ccc(N(C)CCCCSc3ccc(F)cc3)nn2)n1 [Compound 72],0.388
10,Cc1nsc(-c2ccc(N(C)CCCCCc3ccc(F)cc3)nn2)n1 [Compound 76],1.15
11,Cc1nsc(-c2ccc(N(C)CCCOc3cccc(C(F)(F)F)c3)nn2)n1 [Compound 51],9.38
12,Cc1nsc(-c2ccc(N(C)CCCCOc3cc(F)cc(C(F)(F)F)c3)nn2)n1 [Compound 48],1.85
13,Cc1nsc(-c2ccc(NCCCCOc3ccc(F)cc3F)nn2)n1 [Compound 22],72.6
14,Cc1nsc(-c2ccc(NCCCOc3cccc(C(F)(F)F)c3)nn2)n1 [Compound 25],40.4
15,Cc1nsc(-c2ccc(N(C)CCCCOc3ccccc3)nn2)n1 [Compound 35],29.4
16,Cc1nsc(-c2ccc(NCCNc3cccc(C(F)(F)F)c3)nn2)n1 [Compound 6],0.428
17,Cc1nsc(-c2ccc(NCCOc3cccc(C(F)(F)F)c3)nn2)n1 [Compound 24],1.33
18,Cc1nsc(-c2ccc(N(C)CCNc3cccc(C(F)(F)F)c3)nn2)n1 [Compound 112],13.3
19,Cc1nsc(-c2ccc(NCCCCSc3ccc(F)cc3)nn2)n1 [Compound 71],< 0.1
20,Cc1nsc(-c2ccc(N(C)CCCCOc3ccc(Cl)c(Cl)c3)nn2)n1 [Compound 39],17.1
21,Cc1nsc(-c2ccc(N(C)CCN(Cc3ccccc3)c3cccc(C(F)(F)F)c3)nn2)n1 [Compound 110],6.98
22,Cc1nsc(-c2ccc(N(C)CCCCOc3ccc(Br)cc3[N+](=O)[O-])nn2)n1 [Compound 56],80.7
